This is an account of results in patent US7994127B2, “Treatment of rett syndrome” (Massachusetts Institute of Technology, priority 2007, dated 2011).

Data set [1] concerns neurons in the CA3 region of the hippocampus. Kind of data set: Neuron soma size in hippocampus. In kind it is in vivo, mouse. How it is done: We also measured the effect of (1-3)IGF1 treatment on neuron soma size in hippocampus. Mice were treated with (1-3)IGF1 as described above for locomotor activity.
The conditions of data set [2]: in vivo; cited from earlier work.
Data set [3] relates to layer 5 pyramidal neurons in motor cortex of MeCP2 knockout mice. Briefly: Golgi staining, dendritic spine density and morphology. In kind it is in vivo, mouse.
The test system of data set [4] is MeCP2−/y mice. Kind of data set: Heart rate measurements (real time cardiac pulse rate, tail clip sensor). To be noted: 8 week old MeCP2−/y mice, treated from P15 (6 weeks), non-anesthetized. It counts as in vivo, mouse.
The test system of data set [5] is BDNF. Kind of data set: BDNF expression (mRNA micro-array, proBDNF staining) in V1 during monocular deprivation. In kind it is in vivo, mouse. The settings on record: mice subjected to MD and treated; vs MD and control. How it is done:
A: Effects of (1-3)IGF-1 (GPE) treatment on the expression levels of BDNF at mRNA level. […] (1-3)IGF-1 treatment is able to increase expression though not to control levels. The RNA levels were obtained with the micro-array analysis described in Tropea et al., 2006. B: Double staining for NeuN (green) and proBDNF (red) antibody. […] Anti-pro BDNF and anti-NeuN were obtained from CHEMICON and used at a concentration of 1:500. The solutions and time of incubations are the following: preincubation in 5% BSA, 0.1% triton, 10% serum, PBS. Incubation with the primary antibodies was carried out at 4 degrees for 3 days in the following solution: 2% BSA, 5% serum, 0.1% triton, PBS. After washings in PBS secondary biotinylated (for pro-BDNF) or Alexa conjugated (for NeuN) antibodies (1:200) were incubated for 2 hours in the same solution of the primary antibodies. The pro-BDNF labeling was detected by adding extravidine tritc (Sigma—1:300). C: Effects of (1-3)IGF-1 (GPE) treatment on the mRNA expression levels of tPA. […] Anti-tPA was purchased from Oxford Biomedical Research and used at a concentration of 1:500. The conditions for incubation were the following: free floating sections were pre-incubated in blocking solution: 10% serum, 0.3% triton, PBS and then left overnight in the primary antibody mix: 1% serum, 0.3% triton, PBS, anti-tPA 1:500, anti Neu-N 1:500. […]

Where [6] appears, read: P28, knockout treated vs knockout and wild-type.

“Also recorded” adds a separate entry of the source.

Consider `NCC(=O)N1CCC[C@H]1C(=O)N[C@@H](CCC(=O)O)C(=O)O` [(1-3)IGF-1, glycyl-L-prolyl-L-glutamic acid], for which, in data set [1] (MeCP2 KO animals, treated as for locomotor activity), the “average soma size (cell perimeter, FIG. 7)” value was “increased average soma size in KO animals”. Moreover, in data set [1] (as a result of the knockout or treatment (Discussion)), the “size of cell bodies” value is on record as “no change was observed”. The “soma size (cell perimeter, FIG. 7)” value in data set [1] (wild type animals treated) was “had no effect on soma size in wild type animals”. Besides, the “crossing the blood-brain barrier” value in data set [2] was “capable of crossing the blood-brain barrier”. For the same compound, the “over-representation of thin (immature) spines (FIG. 2D)” value in data set [3] (P28, knockout treated vs knockout) is “not ameliorated by the treatment”. Besides, in data set [3] (setting [6]), the “% mushroom (mature) spines (FIG. 2D)” value was “reduced in the knockout compared to wild-type and knockout treated with (1-3)IGF1”; the “dendritic spine density (spines per length of dendrite, FIG. 2C)” value is on record as “spine densities more similar to wild-type values”. Moreover, the “average dendritic branch thickness (FIG. 2E)” value in data set [3] (P28, wild-type, knockout, knockout treated) was “did not vary”. Moreover, the “heart rate distribution / occurrence of irregular, lower heart rate (bradycardia, FIG. 4A)” value in data set [4] is “significantly reduced; also recorded: partial rescue of the KO phenotype”. In addition, in data set [5], the “BDNF mRNA expression level in contralateral V1 (FIG. 8A)” value is given as “increase expression in animals subjected to MD, though not to control levels” and the “BDNF protein expression, proBDNF staining (FIG. 8B)” value was “increasing BDNF protein expression, though not to control levels”.
